The test system of data set [1] is LC3-II. In words: Western blot of LC3-II, Hep3B. The data set is classed as cell-based, human. The note with it: 10 μM sorafenib, 30 μM conventional curcumin, 48 h. The method, then:
(§1) The cells were incubated with various treatment (conventional and formulated curcumin or combination of sorafenib and conventional and formulated curcumin), and then collected for western blot. Aliquots of cell lysates containing 20–50 μg of protein were separated by SDS-polyacrylamide gel electrophoresis (SDS-PAGE), transferred onto a polyvinylidene difluoride (PVDF) membrane and detected using specific primary and secondary antibodies. The protein bands were visualized by an enhanced chemiluminescence (ECL) detection kit (Immobilon^TM western, Millipore). The membranes were reprobed for β-actin as a loading control. All western blots were carried out at least three times for each experiment. The data were normalized to β-actin. The following primary antibodies were used: anti-extracellular regulated protein kinases (ERK), anti-caspase-3, anti-poly (ADP-ribose) polymerase (PARP) (all from Cell Signaling Technology) and anti-aurora kinase A (AURKA) (BD Biosciences). All antibodies were used at a 1:1000 dilution.
(§2) formulated curcumin on HCC cell lines. (A) Huh7 cells were treated with various concentrations of
(§3) Cell viability was determined
(§4) cells were examined by flow cytometry.
(§5) were quantified using WinMDI 2.8 software.
(§6) compared to the control group.
(§7) μM of conventional curcumin for 48 h.
(§8) Quantification of cleavage-caspase-3
(§9) are representative of three independent experiments. […]
(In general: Immunoblotting shows a protein as a band on a membrane.)

For data set [2], the system named is Huh7 cells. As to the kind of experiment: MTT proliferation and viability assay, Huh7. Format: cell-based, human. The note with it: for IC50: Homo sapiens; for cell viability: dose-dependent. The method, then:
(§10) After incubation, the media were removed from the wells.

For data set [3] the following is noted: rat plasma, oral, cited from earlier work.
Data set [4] has as its system ERK. As to the kind of experiment: Western blot of ERK phosphorylation, Huh7. Format: cell-based, human. The note with it: Huh7, 10–60 μM, 48 h. The method, then: as §1
Data set [5] has as its system caspase-3. In words: Western blot of cleaved caspase-3, Huh7. The data set is classed as cell-based, human. The note with it: dose-dependent. The method, then:
as §1

Data set [6] can be described thus: Pharmacokinetic study after oral gavage, curcumin in rat plasma by LC/MS/MS. Particulars: 500 mg/kg, n = 5. The data set is classed as in vivo, male Sprague Dawley (SD) rats. The protocol: All animal treatment procedures followed the Guide for the Care and Use of Laboratory Animals (National Institutes of Health (NIH) publication, 85–23, revised 1996) as well as the Animal research: Reporting in vivo experiments (ARRIVE) guidelines, and were approved by the Animal Research Committee at National Yang-Ming University, Taipei, Taiwan, under Institutional Animal Care and Use Committees (IACUC) approval no: 990103. All surgeries and experimental procedure were carried out under anesthesia with all efforts to minimize animal suffering. Twelve male Sprague Dawley (SD) rats (270 ± 15 g body weight) were obtained from Bio-Lasco, Taipei, Taiwan. Water was provided ad libitum, regardless of administration route. All animals were acclimatized and quarantined in quarantine room of the Rosetta animal facility for about 1 week, and then transferred to feeding room. The humidity and temperature were well controlled as 30%–70% and 19–25 °C. The light and dark cycle was set as 12 h: 12 h. Food and drinking water were allowed ad libitum during housing. Rats were randomly divided into two groups treated with curcumin and formulated curcumin. […] A 300 μL blood sample was collected from the tail vein into a tube rinsed with heparin at 0, 0.25, 0.5, 1, 1.5, 2, 4, 6 h after oral administration. Plasma was obtained by centrifuging the blood sample at 4000 rpm for 10 minutes at 4 °C. The 10 μL plasma was mixed with 50 μL of the internal standard solution containing 0.1 ng/µL of agomelatine. The samples were vortexed and centrifuged at 13,000 rpm for 5 minutes. The 50 µL of supernatant was transferred to the 1.5 mL tube contained 50 µL solution of 25% acetonitrile and 0.1% acetic acid. After that, 50 μL of the solution was injected onto LC-MS system. Curcumin concentrations in the samples were determined by positive ion electrospray tandem mass spectrometry using multiple reaction monitoring (MRM). Separation of curcumin was conducted on a Cosmosil column (5C18-MS-IIPacked column, 120 Å, 5 µm, 4.6 mm I.D. x 150 mm; NACALAI TESQUE, Inc., Japan) with a mobile phase of acetonitrile-water-formic acid. […] Pharmacokinetic analysis was calculated using a non-compartmental model with the Phoenix WinNonlin® (Version 8.0) software. The area under the drug concentration-time curve (AUC) was used to measure the total amount of curcumin reaching the systemic circulation. The relative oral bioavailability (BA) of curcumin was calculated according to the following equation: […] The pharmacokinetic results were represented as the mean ± SD. Statistical analysis was performed by t test (SPSS version 10.0) to compare the differences between groups. The level of significance was set at p < 0.05.

The subject of data set [7] is Huh7 cells. As to the kind of experiment: Annexin V and PI double staining by flow cytometry. The data set is classed as cell-based, human. Particulars: Huh7, 10–60 μM, 24 h, dose-dependent. The protocol: The Huh7 were incubated with various concentrations of conventional and formulated curcumin for 24 h. Annexin V/PI staining was performed to quantify cell apoptosis using an Annexin V-fluorescein isothiocyanate (FITC) Apoptosis Detection Kit (BioVision, Inc., Milpitas, CA, USA) according to the manufacturer’s protocol. Annexin V-FITC was then added followed by incubation for 15 minutes in the dark in a 100 µL cell suspension. PI was then spiked into 400 µL Annexin V binding buffer and added immediately to the cell suspension, and subsequently analyzed on a FACScan flow cytometer (BD Biosciences, USA).
A general note: Flow cytometry measures light scatter and fluorescence of single cells or particles in a stream.

The subject of data set [8] is caspase-3. As to the kind of experiment: Western blot of cleaved caspase-3, Hep3B. The data set is classed as cell-based, human. Particulars: 10 μM sorafenib, 30 μM conventional curcumin, 48 h. The protocol: as §1, §2, §3, §4, §5, §6, §7, §8, §9
The subject of data set [9] is Hep3B cells. In words: Cell cycle analysis (PI, flow cytometry), sub-G1 population. The data set is classed as cell-based, human. Particulars: 48 h, 30 μM conventional curcumin, 10 μM sorafenib. The method, then: After treatment, the cells were collected by trypsinization and fixed in precooled 70% ethanol overnight. The cells were then incubated with PI in the presence of RNase A. The DNA content was analyzed by a FACSCalibur, and the data were analyzed by Flowjo software. The percentage of cells in the sub-G1 was used to indicate the apoptosis rate.
as §2, §3, §4, §5, §6, §7, §8
are representative of three independent experiments.
tetrazolium bromide; SEM, standard error of the mean.

Data set [10] concerns Aurora-A. As to the kind of experiment: Western blot of Aurora-A, Huh7. The data set is classed as cell-based, human. Particulars: Huh7, 0–60 μM, 48 h. The protocol: as §1
A short description of data set [11]: Dissolution test, USP 41 basket method, 1% SDS medium. Format: physicochemical. The note with it: 37 °C. The protocol:
A dissolution test was conducted by the US Pharmacopeia 41 basket method (apparatus 1) using a dissolution tester (708-DS Dissolution apparatus, Agilent, USA). The samples of 89 mg conventional curcumin (equivalent to 72 mg curcumin) and 2180 mg formulated curcumin (equivalent to 72 mg curcumin) were placed into 900 mL of dissolution medium containing 1% sodium dodecyl sulfate (SDS) at 37 °C ± 0.5 °C, under a stirring speed of 100 ± 2 rpm. A 5 mL sample was withdrawn at each time interval (5, 10, 15, 20, 30, 45, and 60 minutes) and was mixed and filtered through a 0.45-µm pore membrane. Then, 2 mL of filtrate was diluted with mobile phase so that the total volume became 10 mL and subjected to HPLC analysis (Agilent 1260, USA). The HPLC program consisted of a mobile phase of tetrahydrofuran: 0.1% citric acid solution (4:6). The column used was 4.6 mm × 20 cm with 5-µm packing L1. The flow rate was 1 mL/minute, and the injection volume was 20 µL using a 420 nm wavelength detector. The percentages of curcumin dissolved from the conventional curcumin and pellets (formulated curcumin) into the medium were calculated and compared.

Data set [12] relates to Mahlavu cells. In words: MTT viability assay, Mahlavu. Particulars: 72 h (Figure 6B). Format: cell-based. The method, then: (§11) Cells were seeded into a 96-well plate (1500–2000 cells/well) overnight and then treated with curcumin and the formulated curcumin respectively for 0, 24, 48, 72, 96 and 120 h. After treatment, […] 3-(4,5-cimethylthiazol-2-yl)-2,5-diphenyl tetrazolium bromide (MTT) was added to each well and cultured for 2 h at 37 °C. After incubation, the media were removed from the wells. The formazan crystals formed were then solubilized in DMSO at room temperature for 10 minutes, and then the absorbance was measured in a multimode microplate reader at 570 nm.
(In general: Tetrazolium assays rely on reduction of a dye to a coloured formazan, in cell work by metabolically active cells.)

The subject of data set [13] is Huh7 cells. As to the kind of experiment: JC-1 mitochondrial membrane potential assay. The data set is classed as cell-based, human. The note with it: Huh7, JC-1, 10, 30, and 60 µM, concentration-dependent. The protocol:
We employed 5, 5’, 6, 6’-tetrachloro-l, 1’, 3, 3’-tetraethylbenzimidazolcarbocyanine iodide (JC-1), which was obtained from Cayman Chemical Co., to analyze the mitochondrial membrane potential. The cells were seeded in 96-well black plates at a density of 7000 cells/well and cultured overnight. After treatment, JC-1 staining solution was added to each well and incubated at 37 °C for 15–30 minutes in the dark. The plates were obtained by centrifuged at 400 × g at room temperature for 5 minutes, and the supernatant was discarded. Then, JC-1 assay buffer was added to each well, followed by centrifugation at 400 × g at room temperature for 5 minutes, after which the supernatant was discarded. Finally, JC-1 assay buffer was added again to each well for fluorescent analysis using a fluorescent plate reader.

Data set [14] relates to Hep3B cells. As to the kind of experiment: MTT viability assay, Hep3B. Format: cell-based, human. Particulars: dose-dependent. The method, then: as §10
Supplementary Figure 6. Effect of sorafenib with or without curcumin/formulated curcumin on Mahlavu and Hep3B cell viability. (A) Mahlavu and (B) Hep3B cells were treated with […]
(conventional)/formulated curcumin for 48 hours. Percentage of inhibition on Mahlavu and Hep3B cells was measured by MTT assay. Data are presented as means ± SEM. Results are representative of three independent experiments.

In data set [15] the test system is PLC5 cells. In words: MTT viability assay, PLC5. The data set is classed as cell-based. Particulars: 72 h (Figure 6C). The protocol:
as §11

For data set [16] the following is noted: rats; piperine given concomitantly with curcumin; cited from earlier work.
The conditions of data set [17]: humans; 20 mg of piperine given concomitantly with 2 g of curcumin; cited from earlier work.
[18] abbreviates: 50 mg/kg, n = 5, ref [6] of supplement.
Where [19] appears, read: 340 mg/kg, n = 3, ref [5] of supplement.
[20] abbreviates: 500 mg/kg, n = 6, ref [7] of supplement.

Where two headings read alike, the source gives them in different places.

For orientation: IC50 means the concentration that inhibits the measured activity by half. Lower therefore signals inhibition by little substance. One may read the Cmax as the highest concentration seen after dosing. One may read the Tmax as the time from dosing to the highest level. In the case of `COc1cc(/C=C/C(=O)CC(=O)/C=C/c2ccc(O)c(OC)c2)ccc1O` [conventional curcumin, curcumin], the LC3-II entry in data set [1] is on record as “significantly induced accumulation”. Moreover, the IC50 was around 90 µM in data set [2] (Huh-7, 24 h, 24 h (Supplementary Figure S4)); around 90 µM in data set [2] (Huh-7, 48 h, 48 h (Supplementary Figure S4)); 53.3 µM in data set [2] (Huh-7, 72 h, 72 h (Figure 6A)); around 60 µM in data set [2] (Huh-7, 72 h, 72 h (Supplementary Figure S4)); around 45 µM in data set [2] (Huh-7, 96 h, 96 h (Supplementary Figure S4)); around 30 µM in data set [2] (Huh-7, 120 h, 120 h (Supplementary Figure S4)). The results for the IC50 in data set [12] and in [15] were 35.4 µM and 82.5 µM, respectively. In addition, the cell viability result in [2] and in [14] was “inhibited cell viability” each time. The AUC0-t in data set [3] (setting [18]) is 8.76 ng·h/mL; in [3] (setting [19]), 80 ng·h/mL; in data set [3] (setting [20]) it was 60 ng·h/mL; in data set [6] (male, Sprague Dawley), 1.1 ± 1.2 ng·h/mL. Further, the Cmax is 4.07 ± 0.56 ng/mL in data set [3] (setting [18]); 2.39 ± 1.66 ng/mL in data set [3] (setting [19]); 60 ± 10 ng/mL in data set [3] (setting [20]); 0.704 ± 0.272 ng/mL in [6] (male, Sprague Dawley). The Tmax is 30 min in [3] (setting [18]); 30 min in [3] (setting [19]); 42 ± 5.4 min in data set [3] (setting [20]); 75 ± 49.8 min in data set [6] (male, Sprague Dawley). The ERK phosphorylation entry in data set [4] is “down-regulation”. In [5], the “caspase-3 activity (cleaved form)” value is listed as “increased”. Besides, the AUC0-t/Dose in data set [6] came out at 0.0022 ± 0.0024. Besides, the “percentage of cells undergoing early apoptosis (annexin V+/PI–) and late apoptosis (annexin V+/PI+)” value in data set [7] is “increased”. Also, the “levels of cleaved caspase-3 proteins” value in data set [8] is reported as “increased”. The “apoptosis rate (sub-G1 population)” value in data set [9] was 13.5%. Further, in data set [10], the “level of Aurora-A” value is “significant decrease”. In addition, the dissolution rate in [11] (0 minutes) was determined as 0.00%; in data set [11] (5 minutes), 9.80%; in data set [11] (10 minutes) it was 13.60%; in data set [11] (15 minutes), 14.05%; in [11] (20 minutes), 17.28%; in data set [11] (30 minutes), 19.41%. The dissolution rate in data set [11] (45 minutes) is reported as 24.06%. In addition, the “mitochondrial membrane potential (ΔΨm)” value in [13] is listed as “significantly induced mitochondrial membrane potential breakdown”.
Regarding `O=C(/C=C/C=C/c1ccc2c(c1)OCO2)N1CCCCC1` [piperine], the “increase of serum curcumin” value in data set [16] is recorded as 1.56 times; in [17], 20 times.
Take `CNC(=O)c1cc(Oc2ccc(NC(=O)Nc3ccc(Cl)c(C(F)(F)F)c3)cc2)ccn1` [sorafenib]: the cell viability result in [2] and in [14] was “inhibited cell viability” each time. Moreover, the “levels of cleaved caspase-3 proteins” value in data set [8] is recorded as “increased”. In addition, in data set [9], the “apoptosis rate (sub-G1 population)” value was 10.9%.
